Test system: cancer cell lines
Assay: Cancer cell proliferation activity of representative nucleosides, CellTiterGlo 72 h (Example 7, Tables 8 and 9)
Type: cell-based
Conditions: 72 h
Experimental: Dose response relationships on cell proliferation was assessed for representative nucleosides on cancer cell lines. Briefly, compound treatment of cells started one day after seeding with a final DMSO concentration of 0.1%, and was performed by nanodrop-dispensing using a Tecan Dispenser. 0.1% DMSO (solvent) and Staurosporine (10 μM) served as high control (100% viability) and low control (0% viability), respectively. Cells were cultured in the appropriate media. For the assays, cells were seeded in white cell culture-treated flat and clear bottom multiwell plates and incubated at 37° C. overnight before compound was added. After incubation for 72 h at 37° C. at 5% or 10% CO2 dependent on the medium, cell plates were equilibrated to room temperature for one hour, CellTiterGlo reagent (Promega) was added and luminescence was measured approximately an hour later using a luminometer.
Raw data were converted into percent cell viability relative to the high and low control, which were set to 100% and 0%, respectively.

Q: What does the source list for `C[C@]1(CO)O[C@@H](n2ccc(N)nc2=O)C[C@@H]1O` [compound 30]?
A: IC50 (72 h, 5637, bladder): 180 nM; IC50 (CLS439, bladder): 2650 nM; IC50 (HS729, muscle): 370 nM; IC50 (J82, bladder): 640 nM; IC50 (JAR, placenta): 5240 nM; IC50 (MT3, breast): 50 nM; IC50 (PC3, prostate): 150 nM; IC50 (RD, muscle): 790 nM; IC50 (T24, bladder): 80 nM; IC50 (Homo sapiens, 22Rv1, 72 h, 22RV1, prostate): 1350 nM; IC50 (Homo sapiens, 786-0, 72 h, 786O, kidney): 380 nM; IC50 (Homo sapiens, A204, 72 h, A204, muscle): 20 nM; IC50 (Homo sapiens, A549, 72 h, A549, lung): 320 nM; IC50 (Homo sapiens, A673, 72 h, A673, bone): 500 nM; IC50 (Homo sapiens, A2780, 72 h, A2780, ovary): 250 nM; IC50 (Homo sapiens, A-375, 72 h, A375, skin): 330 nM; IC50 (Homo sapiens, A-431, 72 h, A431, skin): 280 nM; IC50 (Homo sapiens, ACHN, kidney): 340 nM; IC50 (Homo sapiens, ASPC1, 72 h, ASPC1, pancreas): 130 nM; IC50 (Homo sapiens, BT-20, 72 h, BT20, breast): 670 nM; IC50 (Homo sapiens, BXPC-3, 72 h, BXPC3, pancreas): 130 nM; IC50 (Homo sapiens, C-33-A, C33A, endometrial): 190 nM; IC50 (Homo sapiens, CAKI-1, 72 h, CAKI1, kidney): 70 nM; IC50 (Homo sapiens, COLO 205, 72 h, COLO205, colon): 160 nM; IC50 (Homo sapiens, COLO-678, 72 h, COLO678, colon): 1710 nM; IC50 (Homo sapiens, Ca-Ski, CASKI, endometrial): 1280 nM; IC50 (Homo sapiens, Caco-2, 72 h, CACO2, colon): 2960 nM; IC50 (Homo sapiens, Calu-6, 72 h, CALU6, lung): 500 nM; IC50 (Homo sapiens, DLD-1, 72 h, DLD1, colon): 580 nM; IC50 (Homo sapiens, DU-145, 72 h, DU145, prostate): 280 nM; IC50 (Homo sapiens, EFO-21, 72 h, EFO21, ovary): 450 nM; IC50 (Homo sapiens, EJ-28, 72 h, EJ28, bladder): 1020 nM; IC50 (Homo sapiens, Granta-519, 72 h, GRANTA-519, hematological): 80 nM; IC50 (Homo sapiens, HCT-15, 72 h, HCT15, colon): 540 nM; IC50 (Homo sapiens, HCT-116, 72 h, HCT116, colon): 310 nM; IC50 (Homo sapiens, HEK293, 72 h, HEK293, kidney): 10900 nM; IC50 (Homo sapiens, HL-60, 72 h, HL-60, hematological): 360 nM; IC50 (Homo sapiens, HT-29, 72 h, HT29, colon): 410 nM; IC50 (Homo sapiens, HT-1080, 72 h, HT1080, connective tissue): 270 nM; IC50 (Homo sapiens, HeLa, endometrial): 330 nM; IC50 (Homo sapiens, HepG2, 72 h, HEPG2, liver): 1300 nM; IC50 (Homo sapiens, Hs-578T, HS578T, breast): 920 nM; IC50 (Homo sapiens, IGROV-1, 72 h, IGROV1, ovary): 520 nM; IC50 (Homo sapiens, IMR-90, 72 h, IMR90, lung): 2120 nM; IC50 (Homo sapiens, JEG-3, 72 h, JEG3, placenta): 1250 nM; IC50 (Homo sapiens, JIMT-1, 72 h, JIMT1, breast): 80 nM; IC50 (Homo sapiens, K562, 72 h, K-562, hematological): 1440 nM; IC50 (Homo sapiens, Kasumi 1, 72 h, KASUMI-1, hematological): 80 nM; IC50 (Homo sapiens, L-363, 72 h, L-363, hematological): > 50000 nM; IC50 (Homo sapiens, LoVo, colon): 340 nM; IC50 (Homo sapiens, MCF7, 72 h, MCF7, breast): 1960 nM; IC50 (Homo sapiens, MDA-MB-231, 72 h, MDAMB231, breast): 50 nM; IC50 (Homo sapiens, MDA-MB-435, 72 h, MDAMB435, skin): 820 nM; IC50 (Homo sapiens, MDA-MB-436, 72 h, MDAMB436, breast): 310 nM; IC50 (Homo sapiens, MDA-MB-468, 72 h, MDAMB468, breast): 290 nM; IC50 (Homo sapiens, MG-63, 72 h, MG63, bone): 380 nM; IC50 (Homo sapiens, MHH-ES-1, 72 h, MHHES1, bone): 720 nM; IC50 (Homo sapiens, MIA PaCa-2, 72 h, MIAPACA2, pancreas): 540 nM; IC50 (Homo sapiens, MINO, hematological): 80 nM; IC50 (Homo sapiens, MV4-11, 72 h, MV4-11, hematological): 570 nM; IC50 (Homo sapiens, NCI-H23, 72 h, NCI-H23, lung): 330 nM; IC50 (Homo sapiens, NCI-H82, 72 h, NCIH82, lung): 2530 nM; IC50 (Homo sapiens, NCI-H292, 72 h, NCIH292, lung): 280 nM; IC50 (Homo sapiens, NCI-H460, 72 h, NCIH460, ung): 420 nM; IC50 (Homo sapiens, OVCAR-3, 72 h, OVCAR3, ovary): 380 nM; IC50 (Homo sapiens, OVCAR-4, 72 h, OVCAR4, ovary): 1050 nM; IC50 (Homo sapiens, PANC-1, 72 h, PANC1, pancreas): 1150 nM; IC50 (Homo sapiens, PLC-PRF-5, 72 h, PLCPRF5, liver): 2160 nM; IC50 (Homo sapiens, Panc1005, 72 h, PANC1005, pancreas): 430 nM; IC50 (Homo sapiens, Ramos, hematological): 110 nM; IC50 (Homo sapiens, SAOS-2, 72 h, SAOS2, bone): 80 nM; IC50 (Homo sapiens, SF-268, 72 h, SF268, brain): 150 nM; IC50 (Homo sapiens, SF-295, 72 h, SF295, brain): 730 nM; IC50 (Homo sapiens, SK-BR-3, 72 h, SKBR3, breast): 190 nM; IC50 (Homo sapiens, SK-HEP1, 72 h, SKHEP1, liver): 120 nM; IC50 (Homo sapiens, SK-LMS-1, 72 h, SKLMS1, uterus): 1350 nM; IC50 (Homo sapiens, SK-MEL-5, 72 h, SKMEL5, skin): 3650 nM; IC50 (Homo sapiens, SK-MEL-28, 72 h, SKMEL28, skin): 1180 nM; IC50 (Homo sapiens, SK-N-AS, SKNAS, brain): 1410 nM; IC50 (Homo sapiens, SK-N-SH, SKNSH, brain): > 50000 nM; IC50 (Homo sapiens, SK-OV-3, 72 h, SKOV3, ovary): 280 nM; IC50 (Homo sapiens, SNB-75, 72 h, SNB75, brain): 830 nM; IC50 (Homo sapiens, SU-DHL10, 72 h, SU-DHL-10, hematological): 360 nM; IC50 (Homo sapiens, SU-DHL-6, 72 h, SU-DHL-6, hematological): 330 nM; IC50 (Homo sapiens, SW-620, 72 h, SW620, colon): 650 nM; IC50 (Homo sapiens, TE-671, 72 h, TE671, muscle): 440 nM; IC50 (Homo sapiens, THP-1, 72 h, THP-1, hematological): 1230 nM; IC50 (Homo sapiens, U2OS, bone): 670 nM; IC50 (Homo sapiens, U-87 MG, U87MG, brain): 330 nM; IC50 (Homo sapiens, UMUC3, 72 h, UMUC3, bladder): 560 nM; IC50 (Homo sapiens, UO-31, 72 h, UO31, kidney): 150 nM; IC50 (Homo sapiens, WSU-NHL, hematological): 210 nM; IC50 (NCI-H358M, NCIH358M, lung): 50 nM; IC50 (PBMC, hematological): 1030 nM; IC50 (RD-ES, RDES, bone): 2200 nM
